Experimental data from publication PMC7883042 (Peptide Science (Hoboken, N.j.), 2021).

Target: SARS‐CoV‐2 RBD/ACE2 PPI in A549 cells overexpressing ACE2 (Severe acute respiratory syndrome coronavirus 2, UniProt P0DTC2)

Ac-IEEQAKTFLDKFNHER8EDLFYQS5-NH2 (sidechain bridge or staple) [Peptide 8]
entry of His‐tagged SARS‐CoV RBD into cells (immunofluorescence): show entry
